From patent US9156860B2, “Boron-containing small molecules” (Anacor Pharmaceuticals, Inc., priority 2011, dated 2015)

Columns and labels:
[1] = test system: adult American dog tick (Dermacentor variabilis); test: Example 5: efficacy against adult American dog tick infestations on dogs; type: in vivo
Procedure: The therapeutic (knockdown) and residual efficacy of 7 and 8, each administered orally at a point dose of either 25 mg/kg or 50 mg/kg bodyweight, was evaluated against adult tick (Dermacentor variabilis and Rhipicephalus sanguineus) infestations on dogs. Twenty (20) male and female beagle dogs were allocated to one of five treatment groups, four (4) dogs per group: Untreated control; 7, 25 mg/kg; 7, 50 mg/kg; 8, 25 mg/kg; and 8, 50 mg/kg. On Day −1, all dogs were infested with approximately 50 unfed, adult D. variabilis ticks. On Day 0, dogs were orally administered gelatin capsules containing either 7 or 8 (50% technical active, 47% microcrystalline cellulose and 3% croscarmellose sodium, w/w) so as to achieve the desired point dosages. Ticks were counted and classified on all dogs, but not removed, on Day 1 (approximately 24 hours after treatment). On Day 2, approximately 48 hours after treatment, ticks were counted, classified and removed. Dogs were re-infested with the same number of D. variabilis ticks on Days 5, 12 and 19 with corresponding 48 hour post-infestation tick counts on Days 7, 14 and 21. Dogs were infested with approximately 50 unfed, adult brown dog ticks (Rhipicephalus sanguineus; approximately 50% male and 50% female) on Days 15 and 28, with corresponding 48 hour post-infestation tick counts on Days 17 and 30. GM percent efficacy of treatments against both tick species was calculated using the following formula: […]

[2] = test system: adult American dog tick (Dermacentor variabilis); test: Example 6: efficacy against adult American dog tick infestations on dogs, 48 h and 72 h counts; type: in vivo; conditions: 50 mg/kg oral
Procedure: […] Twelve (12) male and female beagle dogs were allocated to three treatment groups: Untreated, negative control A; 7 group B; and 7 group C (n=4 dogs per group). Dogs were infested with approximately 50 unfed, adult D. variabilis ticks on Days −1, 5, 12, 19 and 28. For 7 group B dogs, tick counts and classification were conducted at 48 hour post-treatment or post-infestation intervals on Days 2, 7, 14, 21 and 30. For negative control group A and 7 group C dogs, tick counts and classification were conducted at 72 hour post-treatment or post-infestation intervals on Days 3, 8, 15, 22 and 31. On Day 0, dogs in groups B and C were orally administered gelatin capsules containing 7 (50% technical active, 47% microcrystalline cellulose and 3% croscarmellose sodium, w/w) at a point dose of 50 mg/kg. Both 48 hour and 72 hour counts in the treated groups were adjusted to counts from the same 72 hour negative control group. GM percent efficacy of treatments was calculated using the following formula:

[3] = test system: adult cat flea (Ctenocephalides felis); test: Example 7: therapeutic efficacy and speed of kill against adult cat flea infestations on dogs; type: in vivo; conditions: 25 mg/kg oral
Procedure: The therapeutic efficacy and speed of kill of 7, administered orally at a point dose of 25 mg/kg bodyweight, was evaluated against adult cat flea (Ctenocephalides felis) infestations on dogs. Twelve (12) male and female beagle dogs were allocated to one of four treatment groups (n=3 dogs per group). Group A was untreated, negative control; groups B, C and D received 7. On Day −1, all dogs were infested with approximately 100 unfed, adult fleas (approximately 50% male and 50% female). On Day 0, dogs in groups B, C and D were orally administered gelatin capsules containing 7, at a point dose of 25 mg/kg (50% technical active, 47% microcrystalline cellulose and 3% croscarmellose sodium, w/w). At eight (8) hours post-treatment, fleas were counted and removed from dogs in group B; at twelve (12) hours post-treatment, fleas were counted and removed from dogs in group C; and at twenty-four (24) hours post-treatment, fleas were counted and removed from dogs in groups A and D. GM percent efficacy of treatments against fleas was calculated using the following formula: […]

[4] = test system: Lone star tick larvae (Amblyomma americanum); test: Larval immersion microassay against larval-stage Lone star ticks; conditions: Amblyomma americanum, 24 h, read-out: activity (percent larval mortality)
Procedure: The larval immersion microassay was conducted as described in detail in White, et al., J. Med. Entomol. […] Compounds of the invention were formulated in dimethylsulfoxide (DMSO) to prepare a stock solution at a concentration of at least 10 mM. […] Approximately 30-50 Lone star tick larvae (Amblyomma americanum) were submerged into each well containing compounds. After a 30 minute immersion period, larvae were removed with a wide-bore pipette tip in 0.05 ml of fluid, dispensed into a commercial paper tissue biopsy bag which was sealed at the top with a plastic dialysis clip, inverted and allowed to air dry for 60 minutes. Bags containing larvae were then incubated at approximately 27 degrees Celsius and >90% relative humidity. After 24 hours, bags were opened, live and dead larvae were counted and percent larval mortality was calculated.
7 contains one chiral center, and is therefore a racemic mixture comprised of approximately 50% R- and 50% S-enantiomer. In vitro and surrogate animal (rat) studies were conducted to evaluate the biological activity of the R- and S-enantiomers of 7. For the in vitro study, larvae of the Lone star tick (Amblyomma americanum) were exposed to 17 (S-enantiomer) and 18 (R-enantiomer) using the larval immersion microassay at a concentration of no greater than 0.3 mM. Following exposure, larvae were removed, transferred to a tissue biopsy bag and incubated at approximately 27 degrees Celsius and >90% relative humidity. After 24 hours, biopsy bags were opened and the numbers of live and dead larvae were determined.

CC1(C)OB(O)c2ccc(C3=NOC(c4cc(Cl)c(Cl)c(Cl)c4)(C(F)(F)F)C3)cc21 (racemic) [Compound 7, 3,3-Dimethyl-5-(5-(3,4,5-trichlorophenyl)-5-(trifluoromethyl)-4,5-dihydroisoxazol-3-yl)benzo[c][1,2]oxaborol-1(3H)-ol]
% efficacy ([1]; 25 mg/kg oral capsule, Day 1): (90.4) %
Geometric mean group live tick count ([1]; 25 mg/kg oral capsule, Day 1): 1.0
Geometric mean group live tick count ([1]; 25 mg/kg oral capsule, Day 2): 0.0
Geometric mean group live tick count ([1]; 25 mg/kg oral capsule, Day 7): 0.7
% efficacy ([1]; 25 mg/kg oral capsule, Day 14): (67.6) %
Geometric mean group live tick count ([1]; 25 mg/kg oral capsule, Day 14): 5.3
% efficacy ([1]; 25 mg/kg oral capsule, Day 21): (71.1) %
Geometric mean group live tick count ([1]; 25 mg/kg oral capsule, Day 21): 4.7
% efficacy ([1]; 50 mg/kg oral capsule, Day 1): (83.0) %
Geometric mean group live tick count ([1]; 50 mg/kg oral capsule, Day 1): 1.8
Geometric mean group live tick count ([1]; 50 mg/kg oral capsule, Day 2): 0.0
Geometric mean group live tick count ([1]; 50 mg/kg oral capsule, Day 7): 0.4
% efficacy ([1]; 50 mg/kg oral capsule, Day 14): (88.5) %
Geometric mean group live tick count ([1]; 50 mg/kg oral capsule, Day 14): 1.9
% efficacy ([1]; 50 mg/kg oral capsule, Day 21): (80.1) %
Geometric mean group live tick count ([1]; 50 mg/kg oral capsule, Day 21): 3.2
Geometric mean group live tick count ([2]; Week 0, 48 h count (Day 2)): 0.3
Geometric mean group live tick count ([2]; Week 0, 72 h count (Day 3)): 0.0
% efficacy ([2]; Week 1, 48 h count (Day 7)): (85.1) %
Geometric mean group live tick count ([2]; Week 1, 48 h count (Day 7)): 2.6
% efficacy ([2]; Week 1, 72 h count (Day 8)): (100) %
Geometric mean group live tick count ([2]; Week 1, 72 h count (Day 8)): 0.0
% efficacy ([2]; Week 2, 48 h count (Day 14)): (78.3) %
Geometric mean group live tick count ([2]; Week 2, 48 h count (Day 14)): 6.1
% efficacy ([2]; Week 2, 72 h count (Day 15)): (99.3) %
Geometric mean group live tick count ([2]; Week 2, 72 h count (Day 15)): 0.2
% efficacy ([2]; Week 3, 48 h count (Day 21)): (13.0) %
Geometric mean group live tick count ([2]; Week 3, 48 h count (Day 21)): 10.7
% efficacy ([2]; Week 3, 72 h count (Day 22)): (100) %
Geometric mean group live tick count ([2]; Week 3, 72 h count (Day 22)): 0.0
% efficacy ([2]; Week 4, 48 h count (Day 30)): (35.5) %
Geometric mean group live tick count ([2]; Week 4, 48 h count (Day 30)): 16.3
Geometric mean group live tick count ([2]; Week 4, 72 h count (Day 31)): 0.8
Residual efficacy using 72 hour count intervals ([2]; through week 3 (Day 22)): > 99%
Residual efficacy at 48 hour intervals ([2]; through week 4 (Day 30)): < 90%
% efficacy ([3]; 8 hours post-treatment): (11.8) %
Geometric mean group live flea count ([3]; 8 hours post-treatment): 75.6
Geometric mean group live flea count ([3]; 12 hours post-treatment): 0.3
Geometric mean group live flea count ([3]; 24 hours post-treatment): 0.0
mortality at 300 µM [4]: ≥ 80%
